Legend:
Details in all cases: Compound concentration 1.0 uM
[1] = biological target: Calcium/calmodulin-dependent protein kinase kinase 2 (Homo sapiens) (UniProt Q96RR4); test: CaMKK2(h) Eurofins kinase panel
[2] = biological target: T1, cGMP-dependent protein kinase 1 (Homo sapiens) (UniProt Q13976); test: PKG1beta (h) Eurofins kinase panel
T1 sequence (whole entry): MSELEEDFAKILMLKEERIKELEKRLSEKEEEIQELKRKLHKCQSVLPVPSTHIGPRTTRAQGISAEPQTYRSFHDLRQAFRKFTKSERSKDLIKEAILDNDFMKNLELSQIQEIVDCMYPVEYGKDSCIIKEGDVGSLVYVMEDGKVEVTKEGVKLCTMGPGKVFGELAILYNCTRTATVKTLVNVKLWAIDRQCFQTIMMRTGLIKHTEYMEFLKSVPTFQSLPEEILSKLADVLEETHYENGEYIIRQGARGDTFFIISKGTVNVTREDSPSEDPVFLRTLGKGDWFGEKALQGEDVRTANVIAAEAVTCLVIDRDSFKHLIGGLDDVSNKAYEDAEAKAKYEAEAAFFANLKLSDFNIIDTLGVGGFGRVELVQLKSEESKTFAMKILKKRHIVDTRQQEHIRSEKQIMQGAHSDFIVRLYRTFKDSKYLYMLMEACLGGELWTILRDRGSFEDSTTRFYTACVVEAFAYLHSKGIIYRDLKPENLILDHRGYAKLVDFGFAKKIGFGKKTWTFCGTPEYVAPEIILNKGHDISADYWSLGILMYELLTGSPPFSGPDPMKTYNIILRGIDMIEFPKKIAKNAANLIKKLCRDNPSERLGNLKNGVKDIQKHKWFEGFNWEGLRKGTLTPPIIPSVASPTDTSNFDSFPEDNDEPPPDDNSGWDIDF

[3] = biological target: T2, Cytoplasmic tyrosine-protein kinase BMX (Homo sapiens) (UniProt P51813); test: Bmx(h) Eurofins kinase panel
T2 sequence (whole entry): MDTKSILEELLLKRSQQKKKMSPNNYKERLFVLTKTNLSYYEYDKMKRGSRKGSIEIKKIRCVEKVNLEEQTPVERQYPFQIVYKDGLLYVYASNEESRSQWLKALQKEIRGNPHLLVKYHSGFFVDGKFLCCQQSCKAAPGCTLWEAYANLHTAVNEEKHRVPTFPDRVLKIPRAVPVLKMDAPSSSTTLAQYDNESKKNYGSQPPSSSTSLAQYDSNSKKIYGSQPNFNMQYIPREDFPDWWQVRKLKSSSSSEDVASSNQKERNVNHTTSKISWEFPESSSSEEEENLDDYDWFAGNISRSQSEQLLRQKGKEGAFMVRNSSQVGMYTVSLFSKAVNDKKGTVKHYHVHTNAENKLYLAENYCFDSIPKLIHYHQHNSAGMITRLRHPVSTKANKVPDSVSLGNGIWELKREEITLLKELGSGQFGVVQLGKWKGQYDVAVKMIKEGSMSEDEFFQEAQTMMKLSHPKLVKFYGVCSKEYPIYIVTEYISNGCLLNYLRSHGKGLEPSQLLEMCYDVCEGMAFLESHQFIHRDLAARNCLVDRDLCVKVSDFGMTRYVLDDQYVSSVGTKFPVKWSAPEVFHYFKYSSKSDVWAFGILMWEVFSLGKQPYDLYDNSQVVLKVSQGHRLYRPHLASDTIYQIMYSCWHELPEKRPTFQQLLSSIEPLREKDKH

[4] = biological target: T3, Homeodomain-interacting protein kinase 4 (Homo sapiens) (UniProt Q8NE63); test: HIPK4(h) Eurofins kinase panel
T3 sequence (whole entry): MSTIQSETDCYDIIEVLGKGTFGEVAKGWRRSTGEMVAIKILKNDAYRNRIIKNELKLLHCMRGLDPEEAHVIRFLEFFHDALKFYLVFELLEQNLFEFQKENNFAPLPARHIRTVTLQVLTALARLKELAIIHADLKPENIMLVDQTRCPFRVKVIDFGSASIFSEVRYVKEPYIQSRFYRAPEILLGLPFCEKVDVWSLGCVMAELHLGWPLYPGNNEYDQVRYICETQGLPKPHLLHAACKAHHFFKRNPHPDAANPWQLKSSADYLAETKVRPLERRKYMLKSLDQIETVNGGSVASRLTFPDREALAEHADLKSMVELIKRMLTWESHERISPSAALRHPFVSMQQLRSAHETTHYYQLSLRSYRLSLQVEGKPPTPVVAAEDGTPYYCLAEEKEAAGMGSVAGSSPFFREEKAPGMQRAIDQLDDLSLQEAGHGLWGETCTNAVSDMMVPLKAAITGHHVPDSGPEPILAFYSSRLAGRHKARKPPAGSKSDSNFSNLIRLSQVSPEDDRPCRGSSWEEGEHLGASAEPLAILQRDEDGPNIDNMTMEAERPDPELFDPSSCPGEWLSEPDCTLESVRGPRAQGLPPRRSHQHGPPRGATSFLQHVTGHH

[5] = biological target: T4, Serine/threonine-protein kinase MAK (Homo sapiens) (UniProt P20794); test: MAK(h) Eurofins kinase panel
T4 sequence (whole entry): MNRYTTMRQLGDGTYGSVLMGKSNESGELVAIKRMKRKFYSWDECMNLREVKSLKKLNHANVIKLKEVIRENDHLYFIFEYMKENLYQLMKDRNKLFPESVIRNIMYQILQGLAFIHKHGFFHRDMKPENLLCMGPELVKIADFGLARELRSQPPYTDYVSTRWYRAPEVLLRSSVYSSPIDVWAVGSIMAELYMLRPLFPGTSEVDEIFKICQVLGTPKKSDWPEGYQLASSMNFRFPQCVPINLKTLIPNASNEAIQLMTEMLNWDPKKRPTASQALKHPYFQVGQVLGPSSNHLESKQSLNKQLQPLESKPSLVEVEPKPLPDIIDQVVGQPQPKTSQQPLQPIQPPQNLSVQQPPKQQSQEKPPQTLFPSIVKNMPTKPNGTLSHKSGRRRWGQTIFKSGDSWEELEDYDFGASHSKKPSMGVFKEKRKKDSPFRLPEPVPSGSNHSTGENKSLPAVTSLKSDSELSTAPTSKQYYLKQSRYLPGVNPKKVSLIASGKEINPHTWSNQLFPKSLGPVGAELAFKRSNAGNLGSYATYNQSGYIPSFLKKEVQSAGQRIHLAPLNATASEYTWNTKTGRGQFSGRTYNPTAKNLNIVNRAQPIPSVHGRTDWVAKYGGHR

[6] = biological target: MAP kinase-interacting serine/threonine-protein kinase 2 (Homo sapiens) (UniProt Q9HBH9); test: Mnk2(h) Eurofins kinase panel
[7] = biological target: Eukaryotic translation initiation factor 2-alpha kinase 3 (Homo sapiens) (UniProt Q9NZJ5); test: PEK(h) Eurofins kinase panel
[8] = biological target: NT-3 growth factor receptor (Homo sapiens) (UniProt Q16288); test: TrkC(h) Eurofins kinase panel

Measured: % residual kinase activity

NT-3 growth factor receptor (Homo sapiens), sequence (Q16288 32-839 limits assumed): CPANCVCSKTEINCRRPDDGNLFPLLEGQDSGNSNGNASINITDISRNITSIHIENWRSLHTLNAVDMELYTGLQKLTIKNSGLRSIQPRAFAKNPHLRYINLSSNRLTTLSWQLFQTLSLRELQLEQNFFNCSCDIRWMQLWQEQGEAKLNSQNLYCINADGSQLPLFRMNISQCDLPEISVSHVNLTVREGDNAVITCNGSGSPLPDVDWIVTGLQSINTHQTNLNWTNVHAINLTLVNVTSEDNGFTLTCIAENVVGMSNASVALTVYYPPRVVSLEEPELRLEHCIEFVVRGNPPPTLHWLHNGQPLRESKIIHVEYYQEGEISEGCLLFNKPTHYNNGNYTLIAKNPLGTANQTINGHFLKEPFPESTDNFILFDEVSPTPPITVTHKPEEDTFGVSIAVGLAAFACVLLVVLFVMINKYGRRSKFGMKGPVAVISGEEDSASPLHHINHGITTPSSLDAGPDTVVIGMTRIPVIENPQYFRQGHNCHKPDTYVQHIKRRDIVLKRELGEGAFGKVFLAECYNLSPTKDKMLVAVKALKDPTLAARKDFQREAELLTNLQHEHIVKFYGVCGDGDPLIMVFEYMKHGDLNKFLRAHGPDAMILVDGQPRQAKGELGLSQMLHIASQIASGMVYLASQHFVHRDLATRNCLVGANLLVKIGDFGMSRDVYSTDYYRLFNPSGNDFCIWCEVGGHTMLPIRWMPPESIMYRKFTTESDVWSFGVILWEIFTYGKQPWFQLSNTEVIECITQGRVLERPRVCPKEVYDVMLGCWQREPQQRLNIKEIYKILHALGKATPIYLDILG
Calcium/calmodulin-dependent protein kinase kinase 2 (Homo sapiens), sequence (Q96RR4 2-588 limits assumed): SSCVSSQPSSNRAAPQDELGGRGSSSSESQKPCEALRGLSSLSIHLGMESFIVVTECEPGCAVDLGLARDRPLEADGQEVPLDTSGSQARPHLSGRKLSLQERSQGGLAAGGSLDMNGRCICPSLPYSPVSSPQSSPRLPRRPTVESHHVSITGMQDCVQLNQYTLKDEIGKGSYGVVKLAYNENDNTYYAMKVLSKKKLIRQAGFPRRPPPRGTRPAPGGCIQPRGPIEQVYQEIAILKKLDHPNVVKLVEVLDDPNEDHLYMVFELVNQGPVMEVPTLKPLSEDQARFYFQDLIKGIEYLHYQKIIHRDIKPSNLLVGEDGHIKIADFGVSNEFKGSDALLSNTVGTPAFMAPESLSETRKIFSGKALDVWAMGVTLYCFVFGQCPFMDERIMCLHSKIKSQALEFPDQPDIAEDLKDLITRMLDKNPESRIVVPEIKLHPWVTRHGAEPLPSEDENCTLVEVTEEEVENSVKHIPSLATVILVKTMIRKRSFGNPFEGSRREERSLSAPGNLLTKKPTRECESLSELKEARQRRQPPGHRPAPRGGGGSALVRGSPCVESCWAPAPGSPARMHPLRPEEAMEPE
Eukaryotic translation initiation factor 2-alpha kinase 3 (Homo sapiens), sequence (Q9NZJ5 whole entry): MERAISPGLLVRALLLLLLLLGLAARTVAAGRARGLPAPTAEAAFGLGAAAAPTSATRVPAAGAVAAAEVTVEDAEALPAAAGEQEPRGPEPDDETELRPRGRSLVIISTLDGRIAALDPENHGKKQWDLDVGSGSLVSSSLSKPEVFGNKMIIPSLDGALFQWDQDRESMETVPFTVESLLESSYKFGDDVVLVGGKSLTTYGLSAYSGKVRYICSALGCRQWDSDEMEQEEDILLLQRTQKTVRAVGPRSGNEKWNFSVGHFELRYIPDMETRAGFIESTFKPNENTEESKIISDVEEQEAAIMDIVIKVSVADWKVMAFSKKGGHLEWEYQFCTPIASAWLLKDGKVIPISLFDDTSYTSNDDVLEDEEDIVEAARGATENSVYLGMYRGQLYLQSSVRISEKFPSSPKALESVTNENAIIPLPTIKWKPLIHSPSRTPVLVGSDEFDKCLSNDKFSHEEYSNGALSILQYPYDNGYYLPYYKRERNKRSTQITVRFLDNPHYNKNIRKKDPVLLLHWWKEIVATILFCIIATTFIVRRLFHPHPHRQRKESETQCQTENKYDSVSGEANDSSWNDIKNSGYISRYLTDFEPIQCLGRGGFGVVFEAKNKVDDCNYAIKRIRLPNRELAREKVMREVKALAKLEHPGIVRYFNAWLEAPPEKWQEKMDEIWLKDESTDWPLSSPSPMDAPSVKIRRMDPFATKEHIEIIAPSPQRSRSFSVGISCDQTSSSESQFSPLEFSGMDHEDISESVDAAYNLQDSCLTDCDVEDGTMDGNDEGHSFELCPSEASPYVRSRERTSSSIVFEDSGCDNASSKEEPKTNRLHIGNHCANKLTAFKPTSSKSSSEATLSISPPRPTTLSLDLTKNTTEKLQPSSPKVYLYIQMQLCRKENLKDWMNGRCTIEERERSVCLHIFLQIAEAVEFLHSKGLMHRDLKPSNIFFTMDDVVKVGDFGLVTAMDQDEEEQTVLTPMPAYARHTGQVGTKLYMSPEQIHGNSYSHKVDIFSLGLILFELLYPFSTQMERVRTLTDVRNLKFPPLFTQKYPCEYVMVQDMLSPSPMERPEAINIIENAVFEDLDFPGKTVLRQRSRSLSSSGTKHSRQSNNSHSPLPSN
MAP kinase-interacting serine/threonine-protein kinase 2 (Homo sapiens), sequence (Q9HBH9 whole entry, looked up): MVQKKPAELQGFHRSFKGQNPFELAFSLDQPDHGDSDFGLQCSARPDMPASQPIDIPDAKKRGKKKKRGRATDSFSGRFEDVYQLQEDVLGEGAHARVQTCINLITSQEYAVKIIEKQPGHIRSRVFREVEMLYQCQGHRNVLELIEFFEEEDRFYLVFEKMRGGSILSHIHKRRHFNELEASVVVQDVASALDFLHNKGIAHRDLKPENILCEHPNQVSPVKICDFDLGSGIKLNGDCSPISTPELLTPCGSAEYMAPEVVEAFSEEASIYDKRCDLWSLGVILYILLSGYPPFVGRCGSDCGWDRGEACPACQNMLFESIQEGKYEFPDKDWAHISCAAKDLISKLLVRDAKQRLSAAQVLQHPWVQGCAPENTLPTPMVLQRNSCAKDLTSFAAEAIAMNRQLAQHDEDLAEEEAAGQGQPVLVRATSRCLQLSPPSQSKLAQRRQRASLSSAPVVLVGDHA

CCc1ccccc1C(=O)Nc1n[nH]c2c(C)c(F)c(C3C(C#N)=C(C)N(C)C(C)=C3C#N)cc12 [BAY-3827]
inactive: [1] 101% | [2] 78% | [3] 113% | [4] 105% | [5] 95% | [6] 110% | [7] 101% | [8] 133%
